Experimental data taken from EP4711369A1, “1H-[1,2,3]TRIAZOLO[4,5-H]QUINAZOLINE COMPOUNDS AS PROTEIN KINASE INHIBITORS” (Chengdu Cynogen Bio-Pharmaceutical Technology Co., Ltd., priority 2023, dated 2024).

Tests used:
[1] = tested on: Human ovarian cancer OVCAR3 cells; test: Assay of cell proliferation (CellTiter-Glo); format: cell-based; conditions: Homo sapiens, OVCAR-3, 144 h, 6 days, read-out: OVCAR3 IC50 of cell proliferation inhibitory activity
Protocol: (§1) Human ovarian cancer OVCAR3 cells were inoculated at 2000 cells/well in a 96-well plate and cultured in RPMI 1640 medium containing 20% FBS at 37 °C and 5% CO2 overnight in an incubator. The next day, the compounds were subjected to a three-fold gradient dilution in DMSO from a peak concentration of 2 mM to give nine concentrations. Then, the compounds were diluted 3:200 in growth medium, and finally diluted 1:3 in the cell culture supernatant to give a culture supernatant containing 0.5% DMSO, with the compounds treatment concentrations ranging from 10 µM to 0.1 nM. The cells and the compounds were incubated at 37 °C and 5% CO2 for 6 days. Then, cell proliferation assay was performed using the CellTiter-Glo (manufacturer: Promega, Cat. No. G9242), and luminescence signals were read using a multifunctional microplate reader (model: Synergy H1, manufacturer: BiotTek). IC50 values were calculated by fitting of the concentration-response curves with a four-parameter analysis method using GraphPad Prism software.

[2] = tested on: human breast cancer HCC1806 cells; test: Assay of cell proliferation (CellTiter-Glo); format: cell-based; conditions: Homo sapiens, 144 h, 6 days, read-out: HCC1806 IC50 of cell proliferation inhibitory activity
Protocol: as §1
(§2) The cell proliferation assays of human colon cancer HCT-116 cells, human breast cancer MCF-7 cells, human breast cancer HCC1806 cells, human acute myeloid leukemia MV-4-11 cells, and human gastric cancer MKN1 cells were performed according to the same method, with different inoculation densities set according to different cell growth characteristics.

[3] = tested on: human acute myeloid leukemia MV-4-11 cells; test: Assay of cell proliferation (CellTiter-Glo); format: cell-based; conditions: MV4-11, 144 h, 6 days, read-out: MV-4-11 IC50 of cell proliferation inhibitory activity
Protocol: as §1, §2

[4] = tested on: human gastric cancer MKN1 cells; test: Assay of cell proliferation (CellTiter-Glo); format: cell-based; conditions: Homo sapiens, MKN-1, 144 h; MNK1, 6 days; read-out: MKN1 IC50 of cell proliferation inhibitory activity
Protocol: as §1, §2

CDK2/cyclin E = CDK2/cyclin E (Homo sapiens, UniProt P24941); test: Assay of kinase activity (ADP-Glo); format: biochemical; conditions: kinase inhibitory activity, read-out: CDK2/E1 IC50
Protocol: (§3) CDK/cyclin catalyzes the phosphorylation of a substrate, which concomitantly consumes ATP and produces ADP. The inhibition rate (%) in the presence of a small molecule inhibitor was assessed by measuring the amount of ADP generated in the reaction. The assay compounds were thoroughly mixed by vortexing and then diluted in DMSO to 100× the assay concentration. […] A 2× kinase solution was prepared using a 1× kinase reaction buffer (50 mM Hepes, 10 mM MgCl2, 0.01% Brij35, 2 mM DTT). 2 µL of the kinase solution was transferred to the 384-well assay plate, and the plate was centrifuged at 1000 rpm for 60 seconds in a microplate centrifuge. The plate was incubated at 25 °C in a biochemical incubator for 10 minutes. A 2x mixture of substrate and ATP was prepared in the kinase reaction buffer. Then, 2 µL of the mixture of substrate and ATP was added to the 384-well assay plate. The plate was centrifuged at 1000 rpm for 60 seconds in a microplate centrifuge, and incubated at 25 °C in a biochemical incubator for 60 minutes. 4 µL of ADP-Glo Reagent (Cat. No. V9103, manufacturer: Promega) incubated at 25 °C in a biochemical incubator was added to each well of the 384-well assay plate. The plate was centrifuged at 1000 rpm for 60 seconds in a microplate centrifuge, and incubated at 25 °C in a biochemical incubator for 40 minutes. 8 µL of Detection Reagent incubated at 25 °C in a biochemical incubator was added to each well of the 384-well assay plate. The plate was centrifuged at 1000 rpm for 60 seconds in a microplate centrifuge, and incubated at 25 °C in a biochemical incubator for 40 minutes. Finally, luminescence signals were read using a multifunctional microplate reader (model: PHERAstar FSX, manufacturer: BMG). IC50 values were calculated by nonlinear fitting of the concentration-response curves using GraphPad Prism software.

CDK4/cyclin D1 = CDK4/cyclin D1 (Homo sapiens, UniProt P11802); test: Assay of kinase activity (ADP-Glo); format: biochemical; conditions: kinase inhibitory activity
CDK4/cyclin D1, sequence (P11802 whole entry, species assumed): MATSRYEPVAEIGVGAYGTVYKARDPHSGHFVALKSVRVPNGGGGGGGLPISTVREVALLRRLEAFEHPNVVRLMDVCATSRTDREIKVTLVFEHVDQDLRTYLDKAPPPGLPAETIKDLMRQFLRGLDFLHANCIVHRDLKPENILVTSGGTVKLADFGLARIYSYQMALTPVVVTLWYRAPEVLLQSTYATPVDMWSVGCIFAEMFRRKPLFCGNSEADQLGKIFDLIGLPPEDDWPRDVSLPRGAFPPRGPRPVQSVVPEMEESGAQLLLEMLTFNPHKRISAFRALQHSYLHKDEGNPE
CDK4/cyclin D1, sequence (P24385 whole entry partner, species assumed): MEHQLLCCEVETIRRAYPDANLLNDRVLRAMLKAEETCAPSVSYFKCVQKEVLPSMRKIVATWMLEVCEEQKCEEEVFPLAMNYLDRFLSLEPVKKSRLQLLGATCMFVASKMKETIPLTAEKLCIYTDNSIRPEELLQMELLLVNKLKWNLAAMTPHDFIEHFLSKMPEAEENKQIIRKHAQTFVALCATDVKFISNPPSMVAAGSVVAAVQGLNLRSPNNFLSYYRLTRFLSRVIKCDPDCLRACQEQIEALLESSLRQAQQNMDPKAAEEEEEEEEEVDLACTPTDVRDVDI
Protocol: as §3

CDK9/cyclin T1 = CDK9/cyclin T1 (Homo sapiens, UniProt P50750); test: Assay of kinase activity (ADP-Glo); format: biochemical; conditions: kinase inhibitory activity
CDK9/cyclin T1, sequence (P50750 whole entry, species assumed): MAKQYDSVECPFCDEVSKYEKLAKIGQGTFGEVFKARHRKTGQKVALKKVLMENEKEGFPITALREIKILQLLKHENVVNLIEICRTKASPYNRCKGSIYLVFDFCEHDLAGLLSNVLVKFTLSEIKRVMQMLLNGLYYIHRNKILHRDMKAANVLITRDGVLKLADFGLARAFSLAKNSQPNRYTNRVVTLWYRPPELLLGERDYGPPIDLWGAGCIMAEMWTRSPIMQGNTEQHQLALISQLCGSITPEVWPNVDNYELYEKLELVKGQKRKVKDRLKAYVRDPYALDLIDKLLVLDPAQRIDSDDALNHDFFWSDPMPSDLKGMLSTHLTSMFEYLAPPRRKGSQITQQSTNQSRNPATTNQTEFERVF
CDK9/cyclin T1, sequence (O60563 whole entry partner, species assumed): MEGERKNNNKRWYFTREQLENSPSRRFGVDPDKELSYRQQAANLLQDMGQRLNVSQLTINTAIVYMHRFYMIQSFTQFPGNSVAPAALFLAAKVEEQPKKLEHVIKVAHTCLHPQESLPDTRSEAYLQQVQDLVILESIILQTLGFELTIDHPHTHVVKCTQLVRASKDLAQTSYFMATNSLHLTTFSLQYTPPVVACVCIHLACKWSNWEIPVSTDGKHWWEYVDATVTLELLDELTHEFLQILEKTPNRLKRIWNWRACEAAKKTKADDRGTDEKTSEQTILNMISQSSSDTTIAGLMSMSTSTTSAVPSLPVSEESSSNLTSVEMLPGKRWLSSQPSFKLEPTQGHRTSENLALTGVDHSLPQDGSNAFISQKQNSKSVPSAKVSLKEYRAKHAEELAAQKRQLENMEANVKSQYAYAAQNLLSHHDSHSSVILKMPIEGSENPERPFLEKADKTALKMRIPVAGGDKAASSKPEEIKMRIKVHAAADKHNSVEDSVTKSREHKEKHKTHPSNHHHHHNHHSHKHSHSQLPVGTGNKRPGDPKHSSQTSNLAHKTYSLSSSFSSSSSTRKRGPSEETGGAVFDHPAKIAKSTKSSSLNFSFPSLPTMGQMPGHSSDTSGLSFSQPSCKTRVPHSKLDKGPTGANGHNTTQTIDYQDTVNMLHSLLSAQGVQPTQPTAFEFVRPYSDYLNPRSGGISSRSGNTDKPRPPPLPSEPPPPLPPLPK
Protocol: (§4) CDK/cyclin catalyzes the phosphorylation of a substrate, which concomitantly consumes ATP and produces ADP. The inhibition rate (%) in the presence of a small molecule inhibitor was assessed by measuring the amount of ADP generated in the reaction. The assay compounds were thoroughly mixed by vortexing and then diluted in DMSO to 100× the assay concentration. 40 nL of a compound was transferred to a 384-well assay plate using a nanoliter pipetting system (ECHO® 655 SYSTEM). A 2× kinase solution was prepared using a 1× kinase reaction buffer (50 mM Hepes, 10 mM MgCl2, 0.01% Brij35, 2 mM DTT). 2 µL of the kinase solution was transferred to the 384-well assay plate, and the plate was centrifuged at 1000 rpm for 60 seconds in a microplate centrifuge. The plate was incubated at 25 °C in a biochemical incubator for 10 minutes. A 2x mixture of substrate and ATP was prepared in the kinase reaction buffer. Then, 2 µL of the mixture of substrate and ATP was added to the 384-well assay plate. The plate was centrifuged at 1000 rpm for 60 seconds in a microplate centrifuge, and incubated at 25 °C in a biochemical incubator for 60 minutes. 4 µL of ADP-Glo Reagent (Cat. No. V9103, manufacturer: Promega) incubated at 25 °C in a biochemical incubator was added to each well of the 384-well assay plate. The plate was centrifuged at 1000 rpm for 60 seconds in a microplate centrifuge, and incubated at 25 °C in a biochemical incubator for 40 minutes. 8 µL of Detection Reagent incubated at 25 °C in a biochemical incubator was added to each well of the 384-well assay plate. The plate was centrifuged at 1000 rpm for 60 seconds in a microplate centrifuge, and incubated at 25 °C in a biochemical incubator for 40 minutes. Finally, luminescence signals were read using a multifunctional microplate reader (model: PHERAstar FSX, manufacturer: BMG). IC50 values were calculated by nonlinear fitting of the concentration-response curves using GraphPad Prism software.

CDK6/cyclin D3 = CDK6/cyclin D3 (Homo sapiens, UniProt Q00534); test: Assay of kinase activity (ADP-Glo); format: biochemical; conditions: kinase inhibitory activity
CDK6/cyclin D3, sequence (Q00534 whole entry, species assumed): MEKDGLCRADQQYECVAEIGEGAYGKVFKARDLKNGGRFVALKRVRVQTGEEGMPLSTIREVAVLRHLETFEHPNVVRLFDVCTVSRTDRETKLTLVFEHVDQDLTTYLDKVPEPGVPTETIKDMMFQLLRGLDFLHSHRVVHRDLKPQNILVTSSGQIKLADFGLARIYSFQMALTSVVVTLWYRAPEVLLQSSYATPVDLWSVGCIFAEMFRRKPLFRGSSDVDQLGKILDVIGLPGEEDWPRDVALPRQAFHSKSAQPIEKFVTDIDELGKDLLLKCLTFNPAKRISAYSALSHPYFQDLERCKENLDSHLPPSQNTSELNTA
CDK6/cyclin D3, sequence (P30281 whole entry partner, species assumed): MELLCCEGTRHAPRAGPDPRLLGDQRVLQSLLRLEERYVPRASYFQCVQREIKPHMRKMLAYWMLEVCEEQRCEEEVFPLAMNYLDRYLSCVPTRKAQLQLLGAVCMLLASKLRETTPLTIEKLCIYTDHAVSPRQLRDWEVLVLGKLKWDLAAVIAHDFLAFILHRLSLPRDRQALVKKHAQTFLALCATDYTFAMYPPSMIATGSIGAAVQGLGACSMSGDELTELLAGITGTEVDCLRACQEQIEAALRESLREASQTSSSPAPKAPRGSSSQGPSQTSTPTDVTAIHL
Protocol: as §4

IC50 [1] [nM] | IC50 [2] [nM] | IC50 [3] [nM] | IC50 [4] [nM] | IC50 (CDK2/cyclin E) [nM] | IC50 (CDK4/cyclin D1) [nM] | IC50 (CDK9/cyclin T1) [nM] | IC50 (CDK6/cyclin D3) [nM] | Compound
12 | 53 | 3 | 11 | 0.07 | 0.8 | 7 | 10 | CC(C)n1nnc2ccc3cnc(Nc4ccc(C(=O)N5CC[C@@H](N)C5)cc4)nc3c21 [Example I-5, (R)-(3-Aminopyrrolidin-1-yl)(4-((1-isopropyl-1H-[1,2,3]triazolo[4,5-H]quinazolin-8-yl)amino)phenyl)metha none]
6 | 15 | 1 | 1 | 0.08 | 0.6 | 3 | 3 | CC(C)N[C@H]1CCN(C(=O)c2ccc(Nc3ncc4ccc5nnn([C@@H]6CCC[C@@]6(C)O)c5c4n3)cc2)C1 [Example I-63, (4-((1-((1R,2R)-2-Hydroxy-2-methylcyclopentyl)-1H-[1,2,3]triazolo[4,5-H]quinazolin-8-yl)amino)phenyl)((S)-3-(isopropylamino)pyrrolidin-1-yl)methanone]
148 | 122 | 4 | 29 | 0.08 | 0.7 | 2 | 6 | CC(C)n1nnc2ccc3cnc(Nc4ccc(C(=O)N5CC[C@@H](N(C)C)C5)cc4)nc3c21 [Example I-11, (R)-(3-(Dimethylamino)pyrrolidin-1-yl)(4-((1-isopropyl-1H-[1,2,3]triazolo[4,5-H]quinazolin-8-yl)amino)phenyl)metha none]
26 | 73 | 2 | 7 | 0.06 | 0.5 | 2 | 3 | CN[C@H]1CCN(C(=O)c2ccc(Nc3ncc4ccc5nnn(C(C)C)c5c4n3)cc2)C1 [Example I-6, (S)-(4-((1-Isopropyl-1H-[1,2,3]triazolo[4,5-H]quinazolin-8-yl)amino)phenyl)(3-(methylamino)pyrrolidin-1-yl)methanone]
17 | 93 | 2 | 8 | 0.8 | 1 | 6 | 15 | CN1CCN(C(=O)c2ccc(Nc3ncc4ccc5nnn([C@@H]6CCC[C@@]6(C)O)c5c4n3)cc2)CC1 [Example I-66, (4-((1-((1R,2R)-2-Hydroxy-2-methylcyclopentyl)-1H-[1,2,3]triazolo[4,5-H]quinazolin-8-yl)amino)phenyl)(4-methylpiperazin-1-yl)methanone]

Second part, the compound before the results:

Compound | IC50 [1] [nM] | IC50 [2] [nM] | IC50 [3] [nM] | IC50 [4] [nM] | IC50 (CDK2/cyclin E) [nM] | IC50 (CDK4/cyclin D1) [nM] | IC50 (CDK9/cyclin T1) [nM] | IC50 (CDK6/cyclin D3) [nM]
CC(C)n1nnc2ccc3cnc(Nc4ccc(C(=O)N5CCC(N)CC5)c(F)c4)nc3c21 [Example I-16, (4-Aminopiperidin-1-yl)(2-fluoro-4-((1-isopropyl-1H-[1,2,3]triazolo[4,5-H]quinazolin-8-yl)amino)phenyl)metha none] | 90 | 374 | 9 | 110 | 4 | 12 | 78 | 230
CC(C)n1nnc2ccc3cnc(Nc4ccc(C(=O)N5CCCNCC5)cc4)nc3c21 [Example I-33, (1,4-Diazepan-1-yl)(4-((1-isopropyl-1H-[1,2,3]triazolo[4,5-H]quinazolin-8-yl)amino)phenyl)metha none] | 5 | 19 | 2 | 3 | 0.2 | 1 | 45 | 26
CC(C)n1nnc2ccc3cnc(Nc4ccc(C(=O)N5CC6CCC(C5)N6)cc4)nc3c21 [Example I-25, (3,8-Diazabicyclo[3.2.1]octan-3-yl)(4-((1-isopropyl-1H-[1,2,3]triazolo[4,5-H]quinazolin-8-yl)amino)phenyl)metha none] | 33 | 85 | 4 | 13 | 0.2 | 1 | 16 | 29
CC(C)n1nnc2ccc3cnc(Nc4ccc(C(=O)N5CCC(F)CC5)cc4)nc3c21 [Example I-18, (4-Fluoropiperidin-1-yl)(4-((1-isopropyl-1H-[1,2,3]triazolo[4,5-H]quinazolin-8-yl)amino)phenyl)metha none] | 214 | 247 | 23 | 129 | 2 | 5 | 25 | 35
CC(C)n1nnc2ccc3cnc(Nc4ccc(C(=O)N5CCN[C@H](C)C5)cc4)nc3c21 [Example I-21, (R)-(4-((1-Isopropyl-1H-[1,2,3]triazolo[4,5-H]quinazolin-8-yl)amino)phenyl)(3-methylpiperazin-1-yl)methanone] | 35 | 112 | 4 | 31 | 0.5 | 1 | 2 | 14
C[C@@H](n1nnc2ccc3cnc(Nc4ccc(C(=O)N5CCCN(C)CC5)cc4)nc3c21)C(C)(C)O [Example I-61, (R)-(4-((1-(3-Hydroxy-3-methylbutan-2-yl)-1H-[1,2,3]triazolo[4,5-H]quinazolin-8-yl)amino)phenyl)(4-methyl-1,4-diazepan-1-yl)methanone] | 11 | 8 | 4 | 8 | 0.9 | 1 | 16 | 2
CC(C)n1nnc2ccc3cnc(Nc4ccc(C(=O)N5CCS(=O)(=O)CC5)cc4)nc3c21 [Example I-32, (1,1-Dioxothiomorpholino)(4-((1-isopropyl-1H-[1,2,3]triazolo[4,5-H]quinazolin-8-yl)amino)phenyl)metha none] | 80 | 167 | 9 | 44 | 3 | 15 | 315 | 230
